Assay [1] deals with recombinant DYRK1A kinase (Homo sapiens (Human), UniProt Q13627). The assay is described as follows: DYRK1A kinase assay (Ser/Thr 18 peptide Z-lyte, FRET).
Assay [2] concerns pT212Tau in Dyrk1a- and MAPT-overexpressing HEK293T cells. The experiment in a line: Tau phosphorylation at Threonine 212 (pT212Tau) sandwich ELISA in double transfected cells. Conditions: Homo sapiens, HEK-293T, read-out: Thr212 EC50 (μM). On the technique in general: ELISA stands for enzyme-linked immunosorbent assay.
Procedure: HEK293T cells (transfectable human embryonic kidney cells) were cultured in DMEM medium supplemented with 10% FBS and 1% penicillin/streptomycin.
HEK293T cells were transiently transfected to overexpress Dyrk1a and microtubule-associated protein Tau (MAPT) genes. Specifically, Dyrk1a and MAPT expression vectors were obtained from OriGene (10 μg of each, catalog numbers SC314641 and RC216166, respectively). […] HEK293T cells were seeded at 1.0×10^7 cells in 10 mL per T-75 flask. […] One T-75 flask was designated as a no-vector negative control for pT212Tau signal.
After 4-6 hours of incubation in transfection reagents, transiently double transfected HEK293T cells were dissociated by treatment with trypsin EDTA and seeded at 1.0×10^5 cells in 100 μL per well in 96-well plates. No-vector negative controls were seeded in separate 96-well plates to avoid the risk of the negative control cells picking up the overexpression during incubation.
96-well flat-bottom plates were coated with 100 μL per well anti-HT7 capture antibody (ThermoFisher, MN1000) diluted 1:300 in 1×PBS at 4° C. overnight, with shaking at 500 rpm.
Cells were then lysed with 100 μL 1×RIPA buffer supplemented with phosphatase and protease inhibitors (each diluted to a final 1×). […] V-bottom plates were centrifuged at 4000 rpm, 4° C., for 15 minutes, and 100 μL of lysate supernatant from each well was directly tested for pT212Tau signal by sandwich ELISA.
In assay [3] the test system is LL29 cells (primary human fibroblasts derived from IPF patients), α-smooth muscle actin. The experiment in a line: Inhibition of fibrotic process: TGF-β1-treated primary human fibroblasts, αSMA staining.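 As to all read-outs here: controls were TGF-β1-stimulated wells with DMSO vehicle as the positive reference and cells given DMSO alone as the negative reference.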 The class given is cell-based. Conditions: Homo sapiens, Fibroblast; for EC50: 96 h, TGF-β1 20 ng/mL, 4 days, % cells positive for αSMA; for inhibition at 10 µM: read-out: percent inhibition at 10 μM (given for EC50 >10 μM), TGF-β1, αSMA, 10 μM.

The test system of assay [4] is IL-6 in human peripheral blood mononuclear cells (huPBMCs). The assay is described as follows: IL-6 inhibition in LPS-stimulated human peripheral blood mononuclear cells (HTRF). The note with it: Homo sapiens, PBMC; for EC50: LPS 50 ng/mL, 22 hours, IL-6 HTRF; for inhibition at 10 µM: read-out: percent inhibition at 10 μM (given for EC50 >10 μM), LPS, IL-6, 10 μM. The class given is cell-based. The gist of the method: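 Fresh normal human PBMCs at 1×10e6 cells/mL in RPMI with 1% FBS received compound, then 50 ng/mL E. coli 0111:B4 LPS 2 h later, and were incubated a further 22 h at 37° C. IL-6 read by HTRF (665/620 nm ratio), normalized to DMSO; EC50 from 4-parameter fit.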
In general terms: Time-resolved FRET reads energy transfer from a long-lived donor to a nearby acceptor.

Assay [5] relates to Tau phosphorylation at Ser396 (pSer396) in SH-SY5Y cells. The experiment in a line: Tau phosphorylation at Ser396 (pSer396) cell assay, ELISA/western blot. Format: cell-based, human. Conditions: Homo sapiens; SH-SY5Y cells, overnight (16-18 h); read-out: pSer396 Tau EC50.
In assay [6] the test system is Wnt activity (SW480 colon carcinoma cells stably expressing the Sp5-Luc reporter gene). The assay is described as follows: Wnt activity screening assay (Sp5-Luc reporter gene assay). Format: cell-based, human. Conditions: Homo sapiens; for EC50: 36 to 48 hours; for inhibition at 10 µM: read-out: percent inhibition at 10 μM (given for EC50 >10 μM), 10 μM. A digest of the protocol:
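SW480 colon carcinoma cells stably carrying a lentiviral luciferase reporter driven by an Sp5 promoter with eight TCF/LEF sites, plated at 4,000 cells/well in DMEM with 1% FBS. Compound exposure for 36–48 h at 37 °C, then luminescence read. Signals normalized to DMSO; EC50 from four-parameter nonlinear fit.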
In general terms: In a reporter assay the amount or activity of a reporter protein is the signal.

Assay [7] deals with recombinant GSK3β kinase (Homo sapiens (Human), UniProt P49841). The experiment in a line: GSK3β kinase assay (Ser/Thr 09 peptide Z-lyte, FRET).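 Also: FRET read-out as coumarin over fluorescein emission ratio, compounds incubated one hour at room temperature, IC50 from dose-response curve fit.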 The class given is biochemical.
The mark [8] stands for this setting: DYRK1A kinase, head says EC50, method says IC50, ATP 30 μM.
Setting [9] is: GSK3β kinase, head says EC50, method says IC50, ATP 46 μM.

Like-named read-outs stand apart in the source and are kept apart here.

For orientation: EC50 means the midpoint of the concentration-response curve. A word on the inhibition: it is the percentage by which the read-out fell short of the control.

Sequence of recombinant GSK3β kinase (P49841 whole entry): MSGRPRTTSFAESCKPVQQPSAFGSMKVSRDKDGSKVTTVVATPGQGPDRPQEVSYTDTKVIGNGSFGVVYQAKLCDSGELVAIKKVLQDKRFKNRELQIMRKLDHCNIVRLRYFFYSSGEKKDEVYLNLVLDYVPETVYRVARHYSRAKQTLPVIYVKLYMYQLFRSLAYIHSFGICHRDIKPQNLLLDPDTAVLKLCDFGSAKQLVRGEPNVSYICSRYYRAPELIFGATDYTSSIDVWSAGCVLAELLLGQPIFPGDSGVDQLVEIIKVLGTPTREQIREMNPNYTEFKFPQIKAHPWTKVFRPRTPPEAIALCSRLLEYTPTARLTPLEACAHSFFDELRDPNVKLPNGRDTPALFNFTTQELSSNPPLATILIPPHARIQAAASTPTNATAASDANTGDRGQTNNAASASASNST

For `[2H]c1nc([2H])c(-c2ccc3cnc(NC(=O)CN4CCCC4)cc3c2)c([2H])c1[2H]` [Compound 60, N-(6-(pyridin-3-yl-d4)isoquinolin-3-yl)-2-(pyrrolidin-1-yl)acetamide], the EC50 is 10 nM in assay [1]; 0.126 µM in assay [2]; 2600 nM in assay [3]; 9090 nM in assay [4]; 1900 nM in assay [5]; more than 10000 nM in assay [6]. Moreover, the concentration for a half-maximal effect (EC50) in assay [7] worked out at 404 nM. Also, in assay [6], the inhibition at 10 µM was 41.9%.
With `[2H]c1nc([2H])c(-c2ccc3cnc(NC(=O)CN4CCN(C)CC4)cc3c2)c([2H])c1[2H]` [Compound 61, 2-(4-Methylpiperazin-1-yl)-N-(6-(pyridin-3-yl-d4)isoquinolin-3-yl)acetamide], the concentration giving a half-maximal response (EC50) in assay [1] is 11 nM; in assay [2] it was 0.121 µM; in assay [3] it was more than 10000 nM; in assay [4] it was more than 10000 nM; in assay [5], 9800 nM; in assay [6], more than 10000 nM. The EC50 in assay [7] amounted to 1030 nM. For the same molecule, the figures for the inhibition at 10 µM in assay [3], in assay [4] and in assay [6] were 4.6%, 26.4% and 19.6%, respectively.
Turning to `[2H]c1nc([2H])c(-c2ccc3cnc(NC(=O)CN4CCOCC4)cc3c2)c([2H])c1[2H]` [Compound 62, 2-Morpholino-N-(6-(pyridin-3-yl-d4)isoquinolin-3-yl)acetamide], the half-maximal effective concentration (EC50) is 9 nM in assay [1]; 0.086 µM in assay [2]; more than 10000 nM in assay [3]; more than 10000 nM in assay [4]; 4800 nM in assay [5]; more than 10000 nM in assay [6]. Further, the EC50 in assay [7] was 455 nM. The results for the inhibition at 10 µM in assay [3], in assay [4] and in assay [6] were 13.2%, 8% and 18.4%, respectively.
For `O=C(CN1CCOCC1)Nc1cc2cc(-c3ccnnc3)ccc2cn1` [Compound 67, 2-morpholino-N-(6-(pyridazin-4-yl)isoquinolin-3-yl)acetamide], the EC50 in assay [1] was 29 nM; in assay [2] it was 0.206 µM; in assay [3] it was 1030 nM; in assay [4] it was more than 10000 nM; in assay [5], 1100 nM; in assay [6], more than 10000 nM. Moreover, the EC50 in assay [7] stood at 68 nM. Further, the inhibition at 10 µM in assay [4] came to 6.3%; in assay [6], 26.5%.
`O=C(Nc1cc2cc(-c3cnccn3)ccc2cn1)[C@H]1C[C@H](N2CCOCC2)C1` [Compound 69, trans-3-Morpholino-N-(6-(pyrazin-2-yl)isoquinolin-3-yl)cyclobutane-1-carboxamide]: the concentration giving a half-maximal response (EC50) in assay [1] is 20 nM; in assay [2] it was 0.227 µM; in assay [3], 6730 nM; in assay [4], more than 10000 nM; in assay [5], 2900 nM; in assay [6], more than 10000 nM. The EC50 in assay [7] worked out at 283 nM. Besides, the inhibition at 10 µM turned out to be 4.4% in assay [4] and 9% in assay [6].
Consider `O=C(Nc1cc2cc(-c3cnccn3)ccc2cn1)[C@H]1CC[C@H](N2CCOCC2)CC1` [Compound 71, trans-4-Morpholino-N-(6-(pyrazin-2-yl)isoquinolin-3-yl)cyclohexane-1-carboxamide], for which the 50% effective concentration (EC50) in assay [1] is 11 nM; in assay [2], 0.019 µM; in assay [3] it was more than 10000 nM; in assay [4], more than 10000 nM; in assay [5], 3300 nM; in assay [6], more than 10000 nM. The EC50 in assay [7] was 1020 nM. Further, the inhibition at 10 µM in assay [3] stood at 43.4%; in assay [4] it was 11%; in assay [6] it was 32.1%.
As for `O=C(Nc1cc2cc(-c3cnccn3)ccc2cn1)[C@H]1CC[C@H](CN2CC(F)C2)CC1` [Compound 72, trans-4-((3-Fluoroazetidin-1-yl)methyl)-N-(6-(pyrazin-2-yl)isoquinolin-3-yl)cyclohexane-1-carboxamide], the EC50 is 7 nM in assay [1]; 0.628 µM in assay [2]; 1830 nM in assay [3]; more than 10000 nM in assay [4]; 7700 nM in assay [5]; more than 10000 nM in assay [6]. For the same molecule, the EC50 in assay [7] was determined as 1220 nM. Further, the figures for the inhibition at 10 µM in assay [4] and in assay [6] were 10% and 35.7%, respectively.
`CN1CCN(C[C@H]2CC[C@H](C(=O)Nc3cc4cc(-c5cnccn5)ccc4cn3)CC2)CC1` [Compound 73, trans-4-((4-Methylpiperazin-1-yl)methyl)-N-(6-(pyrazin-2-yl)isoquinolin-3-yl)cyclohexane-1-carboxamide]: the EC50 in assay [1] was 4 nM; in assay [2] it was 0.024 µM; in assay [3] it was more than 10000 nM; in assay [4], 320 nM; in assay [5] it was more than 10000 nM; in assay [6], more than 10000 nM. Further, the half-maximal effective concentration (EC50) in assay [7] worked out at 828 nM. In addition, the figures for the inhibition at 10 µM in assay [3] and in assay [6] were 43.1% and 33.3%, respectively.
Consider `CN1CCC(C(=O)Nc2cc3cc(-c4cnccn4)ccc3cn2)CC1` [Compound 75, 1-Methyl-N-(6-(pyrazin-2-yl)isoquinolin-3-yl)piperidine-4-carboxamide], for which the EC50 in assay [1] is 10 nM; in assay [2], 0.089 µM; in assay [3], 1370 nM; in assay [4] it was more than 10000 nM; in assay [5], more than 10000 nM; in assay [6], more than 10000 nM. Moreover, the EC50 in assay [7] stood at 1390 nM. Also, the inhibition at 10 µM in assay [4] was 27.5%; in assay [6] it was 33.7%.
For `O=C(Nc1cc2cc(-c3cnccn3)ccc2cn1)C1CCN(CCF)CC1` [Compound 77, 1-(2-Fluoroethyl)-N-(6-(pyrazin-2-yl)isoquinolin-3-yl)piperidine-4-carboxamide], the EC50 in assay [1] (setting [8]) is 11 nM; in assay [2] it was 0.062 µM; in assay [3] it was 4760 nM; in assay [4], more than 10000 nM; in assay [5], more than 10000 nM; in assay [6] it was more than 10000 nM. Further, the half-maximal effective concentration (EC50) in assay [7] (setting [9]) worked out at 1070 nM. Also, the results for the inhibition at 10 µM in assay [4] and in assay [6] were 9.6% and 36.4%, respectively.
Turning to `CC(C)Nc1cncc(-c2ccc3cnc(NC(=O)C4CCN(C)CC4)cc3c2)n1` [Compound 88, N-(6-(6-(Isopropylamino)pyrazin-2-yl)isoquinolin-3-yl)-1-methylpiperidine-4-carboxamide], the 50% effective concentration (EC50) in assay [1] (setting [8]) was 1 nM; in assay [2], less than 0.003 µM; in assay [3], more than 10000 nM; in assay [4], 400 nM; in assay [5], 129 nM; in assay [6], 68 nM. Besides, the concentration giving a half-maximal response (EC50) in assay [7] (setting [9]) was found to be 26 nM. In addition, the inhibition at 10 µM in assay [3] amounted to 31.9%.
Take `Cc1cncc(-c2ccc3cnc(NC(=O)CN4CCOCC4)cc3c2)c1` [Compound 146, N-(6-(5-Methylpyridin-3-yl)isoquinolin-3-yl)-2-morpholinoacetamide]: the half-maximal effective concentration (EC50) in assay [1] (setting [8]) is 9 nM; in assay [2] it was 0.054 µM; in assay [3], more than 10000 nM; in assay [4] it was more than 10000 nM; in assay [5], 7800 nM; in assay [6], more than 10000 nM. Besides, in assay [7] (setting [9]), the EC50 was 623 nM. Also, the figures for the inhibition at 10 µM in assay [3], in assay [4] and in assay [6] were 23.8%, 0% and 38.5%, respectively.
